In patent US20100210557A1, “USE OF RFRP, ALONE OR IN COMBINATION WITH NEUROKININ-B, AS A THERAPEUTIC AGENT” (priority 2007, published 2010):
No end group written: not given here.

Tests used:
HCMV strain AD169 = test: HCMV plaque formation assay in MRC-5 cells; details: for inhibition of HCMV plaque formation as compared to the virus control: 10 micrograms per ml, 7-10 days
[1] = tested on: spleen cells of Ovalbumin-immunized Balb/c mice; test: Th1/Th2 cytokine profiling assay; assay type: cell-based, mouse; details: 10 micrograms per ml; Ovalbumin restimulation 10 micrograms/ml; 72 hours
Procedure: The Balb/c mice (originated in 1923, it is a popular strain and is used in many different research disciplines. […] On day 50, spleens of the mice were harvested (3 weeks after last boost with Ovalbumin). […] Thereafter, additional Ovalbumin was added to the cells at 10 micrograms/ml for in vitro restimulation of the cells. 72 hours later, cell supernatants were harvested and assayed using the Becton Dickinson Mouse […] Cytokine CBA Kit. This kit can be used to measure Interleukin-2 (IL-2), Interleukin-4 (IL-4), Interleukin-5 (IL-5), Interferon-γ (IFN-γ), and Tumor Necrosis Factor-α (TNF-α) protein levels in a single sample. The kit performance has been optimized for analysis of physiologically relevant concentrations (pg/ml levels) of specific cytokine proteins in tissue culture supernatants and serum samples.

[2] = tested on: hepatitis B virus (HBV) ayw strain; test: HBV assay in HepG2-2.2.15 cells (secreted HBV DNA by TaqMan PCR); assay type: cell-based; details: 10 micrograms per ml; six days; HBV DNA in supernatant
Description: HepG2-2.2.15 is a stable cell line containing the hepatitis B virus (HBV) ayw strain genome (ATCC Cat. No. CRL-11997). Antiviral compounds blocking any late step of viral replication such as transcription, translation, pregenome encapsidation, reverse transcription, particle assembly and release can be identified and characterized using this cell line. In this assay, an active compound will reduce the production of secreted HBV from cells, measured by utilizing real time quantitative PCR (TaqMan) assay to directly and accurately measure HBV DNA copies.
HepG2-2.2.15 cells were plated in 96-well microtiter plates. After 16-24 hours the confluent monolayer of HepG2-2.2.15 cells was washed and the medium was replaced with complete medium containing test peptides—10 micrograms per ml—in duplicate. […] Six days following the initial administration of the peptides, the cell culture supernatants was collected, treated with pronase and DNAse and then used in a real-time quantitative TaqMan PCR assay. The PCR-amplified HBV DNA was detected in real-time by monitoring increases in fluorescence signals that result from the exonucleolytic degradation of a quenched fluorescence probe molecule that hybridizes to the amplified HBV DNA. […] Antiviral activity was calculated from the reduction in HBV DNA levels (% virus control). […]

[3] = tested on: LPS-induced TNF-alpha production in human macrophages; test: TNF alpha production assay (ELISA); assay type: cell-based; details: 10 micrograms per ml; LPS 200 ng/ml; overnight
Procedure: Human Peripheral Blood Mononuclear Cells (PBMC) were obtained from normal human donors. The macrophages were prepared by adherence of PBMC to the plastic wells of the plates. […] Not stimulated macrophages served as negative background control. After overnight incubation, supernatants from the control and LPS-stimulated cultures were harvested and assayed for TNF alpha production employing a TNF alpha specific ELISA.

| Molecule | antiviral activity of positive control compound (HCMV) (HCMV strain AD169; positive control) | IFNγ spleen cells; TH1 response (% of control) [1] | IL-2 spleen cells (% of control) [1] | IL-4 spleen cells; TH2 response (% of control) [1] | IL-5 spleen cells; TH2 response (% of control) [1] | TNF-a spleen cells; TH1 response (% of control) [1] | inhibition of HCMV plaque formation as compared to the virus control (HCMV strain AD169) | inhibition of HBV replication as compared to the virus control infection [2] | induction of the LPS-induced TNF-alpha production in human macrophages [3] |
| --- | --- | --- | --- | --- | --- | --- | --- | --- | --- |
| Nc1nc(O)c2ncn(COC(CO)CO)c2n1 [Ganciclovir, reference compound] | expected levels of antiviral activity |  |  |  |  |  |  |  |  |
| Asp-Met-His-Asp-Phe-Phe-Val-Gly-Leu-Met-NH2 (DMHDFFVGLM-NH2) [Peptide 2] |  | 126.8 % of control | 198.0 % of control | 103.5 % of control | 99.2 % of control | 151.0 % of control | did not inhibit | 78.5% | 15.9% |
| Met-Pro-His-Ser-Phe-Ala-Asn-Leu-Pro-Leu-Arg-Phe-NH2 (MPHSFANLPLRF-NH2) [Peptide 1] |  | 57.5 % of control | 239.7 % of control | 168.7 % of control | 99.2 % of control | 106.3 % of control | did not inhibit | 77.8% | 21.7% |
